The supplement of paper PMC10307832

What was measured:
Test in all cases: relative viability (nuclei count vs DMSO), 5 days (fraction); higher = more cells survive
[1] = compound: C1=CC=C(C(=C1)C2=CC=C(C=C2)C3=CSC4=C3C(=C(C(=O)N4)C#N)O)O + CC(C)C[C@H](NC(=O)[C@H](Cc1ccccc1)NC(=O)c1cnccn1)B(O)O [Bortezomib] (partner 0.002 µM)
How it was run: (§1)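 Relative viability equals treated-well nuclei counts divided by vehicle-well nuclei counts. Counts came from 4× images of lung cancer cell lines grown in 1536-well plates for 5 days after pin-tool dosing on the day after seeding. Dosing used one drug alone or a fixed anchor-drug dose plus five library-drug doses (not always all listed) in √10 steps, and values are medians of duplicate plates.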

[2] = compound: CC1=CN2C(=O)C=C(N=C2C(=C1)C(C)NC3=CC=CC=C3)N4CCOCC4 [TGX 221] + Nc1ncn([C@H]2C[C@H](O)[C@@H](CO)O2)c(=O)n1 [Decitabine] (partner 2 µM)
How it was run: as §1

[3] = compound: C1=CC=C(C(=C1)C2=CC=C(C=C2)C3=CSC4=C3C(=C(C(=O)N4)C#N)O)O + CS(=O)(=O)N1CCN(Cc2cc3nc(-c4cccc5[nH]ncc45)nc(N4CCOCC4)c3s2)CC1 [Pictilisib] (partner 1 µM)
How it was run: as §1

[4] = compound: CC1=CN2C(=O)C=C(N=C2C(=C1)C(C)NC3=CC=CC=C3)N4CCOCC4 [TGX 221] + N=C(N)NC(=N)NCCc1ccccc1 [Phenformin] (partner 250 µM)
How it was run: as §1

Cell Line	relative viability ([1]; first compound 0.08 µM)	relative viability ([1]; first compound 0.253 µM)	relative viability ([1]; first compound 0.8 µM)	relative viability ([1]; first compound 2.53 µM)	relative viability ([1]; first compound 8 µM)	relative viability ([2]; first compound 0.08 µM)	relative viability ([2]; first compound 0.253 µM)	relative viability ([2]; first compound 0.8 µM)	relative viability ([2]; first compound 2.53 µM)	relative viability ([2]; first compound 8 µM)	relative viability ([3]; first compound 0.08 µM)	relative viability ([3]; first compound 0.253 µM)	relative viability ([3]; first compound 0.8 µM)	relative viability ([3]; first compound 2.53 µM)	relative viability ([3]; first compound 8 µM)	relative viability ([4]; first compound 0.08 µM)	relative viability ([4]; first compound 0.253 µM)	relative viability ([4]; first compound 0.8 µM)	relative viability ([4]; first compound 2.53 µM)	relative viability ([4]; first compound 8 µM)
LOU-NH91	0.428	0.496	0.449	0.515	0.443	0.821	0.763	0.785	0.802	0.788	0.482	0.538	0.51	0.515	0.512	0.679	0.74	0.692	0.784	0.674
NCI-H2347	0.913	1.24	1.23	1.02	0.869	0.564	0.504	0.582	0.558	0.597	0.624	0.609	0.496	0.626	0.454	0.427	0.385	0.389	0.234	0.213
RERF-LC-KJ	0.995	1.1	1.22	1.1	1.05	0.632	0.75	0.762	0.692	0.678	0.576	0.538	0.567	0.466	0.493	0.439	0.434	0.398	0.377	0.326
HCC-44	0.899	0.918	0.909	0.92	0.976	0.921	0.957	1.03	1.04	1.02	0.549	0.717	0.601	0.556	0.605	0.157	0.212	0.212	0.201	0.177
NCI-H650	0.583	0.833	0.772	0.936	0.617	0.326	0.301	0.318	0.343	0.343	0.978	0.975	0.841	0.86	0.91	0.433	0.461	0.404	0.417	0.439
COR-L 105	0.767	0.78	0.819	0.779	0.58	0.651	0.609	0.628	0.649	0.596	0.387	0.525	0.428	0.417	0.433	0.514	0.45	0.569	0.572	0.412
COR-L23	0.864	0.703	1.11	1.09	0.496	0.445	0.402	0.483	0.487	0.489	0.757	0.581	0.813	0.728	0.575	0.436	0.4	0.445	0.485	0.457
LXF-289	0.974	0.973	1	1	0.986	0.37	0.371	0.369	0.348	0.375	0.677	0.831	0.781	0.81	0.779	0.496	0.479	0.546	0.458	0.538
PC-14	0.801	0.81	0.812	1.07	0.88	0.206	0.203	0.228	0.281	0.207	0.604	0.674	0.658	0.797	0.52	0.502	0.543	0.556	0.638	0.667
EKVX	0.879	0.998	1.03	1.02	0.917	0.346	0.313	0.345	0.367	0.307	0.457	0.482	0.376	0.425	0.367	0.213	0.225	0.232	0.22	0.221
NCI-H322M	1.13	1.22	1.24	1.34	1.11	0.628	0.683	0.693	0.62	0.678	0.511	0.495	0.494	0.477	0.499	0.761	0.735	0.715	0.758	0.682
NCI-H520	0.496	0.494	0.903	0.506	0.492	0.449	0.428	0.306	0.341	0.335	0.185	0.277	0.323	0.319	0.295	0.469	0.352	0.355	0.379	0.315
LC-2-ad	1	1.09	1.02	1	1.01	0.765	0.793	0.822	0.826	0.742	0.42	0.537	0.374	0.473	0.355	0.556	0.526	0.569	0.67	0.599
NCI-H596	0.715	1.63	1.2	0.926	0.933	0.987	1.16	1.14	1.08	0.963	0.178	0.407	0.395	0.373	0.378	0.726	0.753	0.852	0.678	0.874
LCLC-97TM1	0.344	0.44	–	0.572	0.343	0.206	0.22	0.233	0.228	0.225	0.168	0.284	0.198	0.2	0.176	0.394	0.399	0.419	0.405	0.418
NCI-H1437	0.539	0.665	0.603	0.406	0.322	0.574	0.56	0.619	0.545	0.574	0.42	0.475	0.39	0.459	0.494	0.315	0.302	0.252	0.269	0.335
